The conditions of data set [1]: 298.15 K; 101.33 kPa; Liquid; Pycnometric method.
Data set [2] can be described thus: refractive index (Na D-line) (dimensionless). As to conditions: 298.15 K; 101.33 kPa; Liquid; Standard Abbe refractometry.

Molecules are shown by their SMILES. Numbers after ± are expanded uncertainties.

By mass density is commonly meant mass per unit of volume. Broadly, the refractive index is a measure of how strongly the sample bends light.

Regarding `CC(C)CC(C)(C)C` [2,2,4-trimethylpentane], in data set [1], the mass density came out at 687.5 ± 0.7 kg/m3. Besides, the refractive index in data set [2] came to 1.3892 ± 0.0008.
For the compound `CCCCO` [butan-1-ol], the mass density in data set [1] is reported as 805.8 ± 0.7 kg/m3. In data set [2], the refractive index amounted to 1.3973 ± 0.0007.
As to `CCCO` [propan-1-ol], the mass density in data set [1] was found to be 799.5 ± 0.7 kg/m3. In data set [2], the refractive index was determined as 1.3833 ± 0.0007.

For the origin of these results see the NIST ThermoML archive (doi:10.1021/je200279q).
